The results in this text go back to patent publication US20220267310A1, “QUINAZOLINE AND CINNOLINE DERIVATIVES AS DNA-PK INHIBITOR” (MEDSHINE DISCOVERY INC., priority 2019, published 2022).

For assay [1], the target named is T1, PI3K (p110σ/p85α) (Homo sapiens, UniProt O00329).
T1 construct: Eurofins Pharma Discovery Service (contract assay)
As to the kind of experiment: PI3K (p110σ/p85α) kinase inhibitory activity (HTRF). Format: biochemical. (TR-FRET usually uses a lanthanide donor and a delayed reading to cut background.)

Assay [2] deals with human small cell lung cancer NCI-H69 xenograft tumor model. Put plainly: NCI-H69 xenograft, mono and combination with etoposide, 24-day experiment (Table 8). Format: in vivo, BALB/c nude mice. To be noted: for Tumor volume (mm^3) (0th day) / Tumor volume (mm^3) (24th day): average ± SEM, n = 9. On the procedure: Experiment example 3: in vivo pharmacodynamics of human small cell lung cancer NCI-H69 cell subcutaneous xenograft tumor BALB/c nude mouse model:
Experimental animals: Female BALB/c nude mice, 6-8 weeks old, weighing 15-22 grams; supplier: Shanghai Linchang Biotechnology Co., LTD. (Linchang, Shanghai)
Human small cell lung cancer NCI-H69 cells (ATCC, item number: HTB-119 and ECACC-95111733) were cultured in vitro in a culture condition of RPMI-1640 medium with 10% fetal bovine serum, 100 U/mL penicillin and 100 μg/mL streptomycin, incubated at 37° C. and 5% CO2. Conventional passage was carried out twice a week. When cell saturation was 80%-90% and the number reaches the requirement, cells were collected, counted and inoculated.
0.2 mL (10×10^6) NCI-H69 cells (with matrix glue, and volume ratio of 1:1) were subcutaneously inoculated into a right back of each mouse, and group administration was initiated when the average tumor volume reaches about 110-120 mm^3.
The tested compound was prepared as a 5 mg/mL clarified solution with 10% DMSO+50% polyethylene glycol 400+40% water as the solvent.
The experimental indicators refers to study whether tumor growth was inhibited, delayed, or cured. Tumor diameter was measured twice a week with a vernier caliper. The calculation formula of the tumor volume was V=0.5a×b^2, and a and b represent the long diameter and short diameter of the tumor, respectively.
The antitumor efficacy of the compound was evaluated by TGI (%) or relative tumor proliferation rate T/C (%). TGI (%) reflects the tumor growth inhibition rate. The calculation of TGI (%): TGI (%)=[1−(average tumor volume at the end of administration of a certain treatment group−average tumor volume at the beginning of administration of the treatment group)/(average tumor volume at the end of treatment in solvent control group−average tumor volume at the beginning of treatment in solvent control group)]×control group.
Relative tumor proliferation rate T/C (%): the calculation formula was as follows: T/C %=[…] TRTV/CRTV group (TRTV: treatment group RTV; CRTV: negative control group RTV). According to results of tumor measurement, Relative Tumor Volume (RTV) was calculated by the formula RTV=Vt/V0, where V0 was the average tumor volume measured in group administration (i.e., d0), and Vt was the average tumor volume measured in a certain single measurement. TRTV and CRTV collect data on the same day.
Statistic analysis includes an average value and a standard error (SEM) of tumor volume at each time point for each group. […] If there was no significant difference in F value, Dunnet (2-sided) method was applied to analysis. All data were analyzed using SPSS 17.0. P<0.05 was considered as having a significant difference.

[3] abbreviates: 40 mg/kg, PO, QD + etoposide 10 mg/kg, IP.
[4] abbreviates: 40 mg/kg, PO, QD + etoposide 10 mg/kg, IP, 3-day administration, 4-day withdrawal.
Where [5] appears, read: 10 mg/kg, BID + etoposide 10 mg/kg, IP.
[6] abbreviates: 20 mg/kg, QD + etoposide 10 mg/kg, IP.
[7] abbreviates: 40 mg/kg, PO, BID + etoposide 10 mg/kg, IP.

T1 sequence (O00329 whole entry): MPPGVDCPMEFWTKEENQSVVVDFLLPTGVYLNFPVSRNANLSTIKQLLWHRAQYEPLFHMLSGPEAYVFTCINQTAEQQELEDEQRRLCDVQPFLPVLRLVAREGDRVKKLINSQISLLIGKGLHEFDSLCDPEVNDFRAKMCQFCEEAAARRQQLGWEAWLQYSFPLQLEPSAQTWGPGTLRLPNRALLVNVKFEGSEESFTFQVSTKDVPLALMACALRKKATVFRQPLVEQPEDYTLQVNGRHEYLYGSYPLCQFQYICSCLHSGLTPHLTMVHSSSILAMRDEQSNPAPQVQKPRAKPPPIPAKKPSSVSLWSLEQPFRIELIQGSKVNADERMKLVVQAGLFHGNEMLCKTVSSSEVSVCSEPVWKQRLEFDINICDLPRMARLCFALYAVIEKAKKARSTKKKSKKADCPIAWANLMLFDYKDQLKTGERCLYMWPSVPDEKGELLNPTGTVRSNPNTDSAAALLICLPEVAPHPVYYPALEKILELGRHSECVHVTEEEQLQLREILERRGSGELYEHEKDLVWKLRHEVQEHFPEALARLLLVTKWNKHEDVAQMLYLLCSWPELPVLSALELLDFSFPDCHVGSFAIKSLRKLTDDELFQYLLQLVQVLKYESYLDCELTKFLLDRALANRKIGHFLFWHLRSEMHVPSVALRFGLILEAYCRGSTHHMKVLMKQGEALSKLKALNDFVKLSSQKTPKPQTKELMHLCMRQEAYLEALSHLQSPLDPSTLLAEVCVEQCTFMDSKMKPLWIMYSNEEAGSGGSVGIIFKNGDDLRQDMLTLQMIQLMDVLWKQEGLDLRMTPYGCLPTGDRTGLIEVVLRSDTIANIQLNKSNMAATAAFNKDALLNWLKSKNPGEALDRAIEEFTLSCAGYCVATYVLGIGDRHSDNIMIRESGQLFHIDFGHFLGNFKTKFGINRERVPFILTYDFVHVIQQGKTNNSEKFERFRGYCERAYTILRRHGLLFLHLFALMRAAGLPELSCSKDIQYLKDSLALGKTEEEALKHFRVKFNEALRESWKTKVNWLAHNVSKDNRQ
T1 sequence (P27986 whole entry partner): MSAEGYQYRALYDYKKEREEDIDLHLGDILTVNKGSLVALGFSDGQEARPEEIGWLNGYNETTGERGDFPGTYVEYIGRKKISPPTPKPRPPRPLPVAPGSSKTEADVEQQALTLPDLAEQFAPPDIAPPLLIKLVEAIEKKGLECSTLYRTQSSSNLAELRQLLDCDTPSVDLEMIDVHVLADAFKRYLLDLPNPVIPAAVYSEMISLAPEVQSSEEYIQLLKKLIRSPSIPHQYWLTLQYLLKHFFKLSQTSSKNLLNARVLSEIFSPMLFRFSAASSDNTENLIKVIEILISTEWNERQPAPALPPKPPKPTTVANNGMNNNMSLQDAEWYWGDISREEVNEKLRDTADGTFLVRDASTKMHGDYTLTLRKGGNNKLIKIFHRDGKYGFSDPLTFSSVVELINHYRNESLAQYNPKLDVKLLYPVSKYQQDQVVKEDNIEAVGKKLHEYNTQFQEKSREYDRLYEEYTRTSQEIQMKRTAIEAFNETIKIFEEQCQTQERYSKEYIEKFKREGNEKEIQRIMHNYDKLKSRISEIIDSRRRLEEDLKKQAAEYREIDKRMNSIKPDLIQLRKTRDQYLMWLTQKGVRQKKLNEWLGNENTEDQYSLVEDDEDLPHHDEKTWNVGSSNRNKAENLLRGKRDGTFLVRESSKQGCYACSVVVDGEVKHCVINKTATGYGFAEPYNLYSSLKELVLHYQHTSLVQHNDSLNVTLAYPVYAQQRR

As a reminder, the IC50 is the point on the concentration scale where inhibition reaches its midpoint. A lower IC50 goes with inhibition by little substance. The compound `COc1ccc([C@@H](O)c2cc(-c3nncc4cc(N5CCOCC5)ccc34)c(F)cc2Cl)nn1` [Embodiment M3814, reference compound] gave a half-inhibitory concentration (IC50) in assay [1] of 14 nM. Also, in assay [2] (setting [3]), the “RTV (24th day)” value stood at 3.47 ± 0.24, the “T/C (%) (24th day)” value is recorded as 43.1%, the “TGI (%) (24th day)” value worked out at 66.1% and the “Tumor volume (mm^3) (24th day)” value was 389 ± 28 mm^3. In addition, the “Tumor volume (mm^3) (0th day)” value in assay [2] (setting [4]) was 114 ± 8 mm^3. Besides, in assay [2] (40 mg/kg, QD, alone), the “RTV (24th day)” value was 6.77 + 0.45, the “T/C (%) (24th day)” value is 84.1%, the “TGI (%) (24th day)” value is recorded as 19.8% and the “Tumor volume (mm^3) (0th day)” value stood at 114 ± 8 mm^3. The “Tumor volume (mm^3) (24th day)” value in assay [2] (40 mg/kg, QD, alone) was found to be 764 ± 59 mm^3.

For the compound `COc1ccc(C(O)c2cc(-c3cnnc4c(F)c(N5CCOCC5)cc(F)c34)c(F)cc2Cl)nn1` (single isomer, unassigned) [Embodiment 19], in assay [1], the half-inhibitory concentration (IC50) came out at 600 nM. Also, the “RTV (24th day)” value in assay [2] (setting [5]) worked out at 4.93 ± 0.42; in assay [2] (setting [6]), 4.08 ± 032; in assay [2] (40 mg/kg, BID, alone), 6.91 ± 0.18; in assay [2] (setting [7]) it was 2.28 ± 0.26; in assay [2] (setting [3]) it was 3.11 ± 0.18. Besides, the “T/C (%) (24th day)” value is listed as 61.2% in assay [2] (setting [5]); 50.6% in assay [2] (setting [6]); 85.8% in assay [2] (40 mg/kg, BID, alone); 28.4% in assay [2] (setting [7]); 38.6% in assay [2] (setting [3]). Besides, the “TGI (%) (24th day)” value in assay [2] (setting [5]) is 46.5%; in assay [2] (setting [6]), 56.8%; in assay [2] (40 mg/kg, BID, alone) it was 16.8%; in assay [2] (setting [7]), 81.5%; in assay [2] (setting [3]), 70.5%. Besides, the “Tumor volume (mm^3) (0th day)” value stood at 114 ± 9 mm^3 in assay [2] (10 mg/kg, BID + etoposide 10 mg/kg, IP, 3-day administration, 4-day withdrawal); 114 ± 7 mm^3 in assay [2] (20 mg/kg, QD + etoposide 10 mg/kg, IP, 3-day administration, 4-day withdrawal); 114 ± 7 mm^3 in assay [2] (40 mg/kg, BID, alone); 114 ± 10 mm^3 in assay [2] (40 mg/kg, PO, BID + etoposide 10 mg/kg, IP, 3-day administration, 4-day withdrawal); 114 ± 7 mm^3 in assay [2] (setting [4]). The “Tumor volume (mm^3) (24th day)” value came to 548 ± 44 mm^3 in assay [2] (setting [5]); 464 ± 41 mm^3 in assay [2] (setting [6]); 789 ± 49 mm^3 in assay [2] (40 mg/kg, BID, alone); 264 ± 37 mm^3 in assay [2] (setting [7]); 353 ± 33 mm^3 in assay [2] (setting [3]).
